Data from US12465603B2, “Phthalazinone based modulators for the treatment of disease” (Soley Therapeutics, Inc., priority 2022, dated 2025).

Columns and labels:
[1] = test system: A2058 (ATCC, CRL-11147) cells; test: Cell viability assay (Cell Titre Glo, 72 hours) in A2058 cells; assay type: cell-based; details: Homo sapiens
Method in brief: (§1)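 10-point dose response, top final concentration 30 μM, 1 in 3 dilutions; 5000 cells per well added directly to compound. Incubated 72 hours at 37° C, 5% CO2, then viability read by Cell Titre Glo luminescence and IC50 curves fitted.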

[2] = test system: PA1 (ECACC, 90013101) cells; test: Cell viability assay (Cell Titre Glo, 72 hours) in PA1 cells; assay type: cell-based; details: Homo sapiens, PA-1
Method in brief: as §1

Compound	IC50 [1]	IC50 [2]
CCn1nc(C(=O)N2CCN(c3cccnc3OC)CC2)c2ccccc2c1=O [Compound 143]	≤ 1 µM	≤ 1 µM
CCn1nc(C(=O)N2CCN(c3cc(F)c(F)cc3OC)CC2)c2ccccc2c1=O [Compound 144]	≤ 1 µM	≤ 1 µM
CCn1nc(C(=O)N2CCN(c3ccc(F)cc3OC(F)F)CC2)c2ccccc2c1=O [Compound 145]	1 to 10 µM	≤ 1 µM
CCn1nc(C(=O)N2CCN(c3cccc(F)c3)CC2)c2ccccc2c1=O [Compound 146]	≤ 1 µM	≤ 1 µM
CCn1nc(C(=O)N2CCN(c3ccccc3OCC(F)(F)F)CC2)c2ccccc2c1=O [Compound 147]	1 to 10 µM	1 to 10 µM
CCOc1cc(F)ccc1N1CCN(C(=O)c2nn(CC)c(=O)c3ccccc23)CC1 [Compound 148]	≤ 1 µM	≤ 1 µM
CCn1nc(C(=O)N2CCN(c3cccc(OC)c3F)CC2)c2ccccc2c1=O [Compound 149]	10 to 20 µM	1 to 10 µM
CCn1nc(C(=O)N2CCN(c3ccc(F)c(OC)c3)CC2)c2ccccc2c1=O [Compound 150]	≤ 1 µM	≤ 1 µM
CCn1nc(C(=O)N2CCN(c3cccc(C#N)c3OC)CC2)c2ccccc2c1=O [Compound 151, 3-(4-(3-ethyl-4-oxo-3,4-dihydrophthalazine-1-carbonyl)piperazin-1-yl)-2-methoxybenzonitrile]	10 to 20 µM	1 to 10 µM
CCn1nc(C(=O)N2CCN(c3cc(OC)ncc3F)CC2)c2ccccc2c1=O [Compound 152]	> 20 µM	> 20 µM
CCn1nc(C(=O)N2CCN(c3cccc(OC)c3Br)CC2)c2ccccc2c1=O [Compound 153]	1 to 10 µM	1 to 10 µM
CCn1nc(C(=O)N2CCN(c3c(C)cccc3OC)CC2)c2ccccc2c1=O [Compound 154]	1 to 10 µM	1 to 10 µM
CCn1nc(C(=O)N2CCN(c3cccc4c3CCO4)CC2)c2ccccc2c1=O [Compound 155]	≤ 1 µM	≤ 1 µM
Cn1nc(C(=O)N2CCN(c3ccccc3)CC2)c2cc(F)ccc2c1=O [Compound 156, 6-fluoro-2-methyl-4-(4-phenylpiperazine-1-carbonyl)phthalazin-1-one]	1 to 10 µM	1 to 10 µM
Cn1nc(C(=O)N2CCN(c3cccc(C#N)c3)CC2)c2cc(F)ccc2c1=O [Compound 157, 3-(4-(7-fluoro-3-methyl-4-oxo-3,4-dihydrophthalazine-1-carbonyl)piperazin-1-yl)benzonitrile]	≤ 1 µM	≤ 1 µM
COc1ccncc1N1CCN(C(=O)c2nn(C)c(=O)c3ccc(F)cc23)CC1 [Compound 158]	≤ 1 µM	≤ 1 µM
Cn1nc(C(=O)N2CCN(c3cncc(C4CC4)c3)CC2)c2cc(F)ccc2c1=O [Compound 159]	≤ 1 µM	≤ 1 µM
Cc1cc(N2CCN(C(=O)c3nn(C)c(=O)c4ccc(F)cc34)CC2)ccn1 [Compound 161]	> 20 µM	> 20 µM
Cc1cncc(N2CCN(C(=O)c3nn(C)c(=O)c4ccc(F)cc34)CC2)c1 [Compound 162]	1 to 10 µM	≤ 1 µM
COc1cc(N2CCN(C(=O)c3nn(C)c(=O)c4ccc(F)cc34)CC2)ccn1 [Compound 163]	> 20 µM	> 20 µM

Compound	IC50 [1]	IC50 [2]
COCc1cncc(N2CCN(C(=O)c3nn(C)c(=O)c4ccc(F)cc34)CC2)c1 [Compound 164]	> 20 µM	> 20 µM
Cn1nc(C(=O)N2CCN(c3cncc(Cl)c3)CC2)c2cc(F)ccc2c1=O [Compound 165]	1 to 10 µM	1 to 10 µM
CCc1ccncc1N1CCN(C(=O)c2nn(C)c(=O)c3ccc(F)cc23)CC1 [Compound 166]	≤ 1 µM	≤ 1 µM
Cc1ccncc1N1CCN(C(=O)c2nn(C)c(=O)c3ccc(F)cc23)CC1 [Compound 167]	≤ 1 µM	≤ 1 µM
Cn1nc(C(=O)N2CCN(c3cncnc3C3CC3)CC2)c2cc(F)ccc2c1=O [Compound 168]	1 to 10 µM	≤ 1 µM
COc1cccnc1N1CCN(C(=O)c2nn(C)c(=O)c3ccc(F)cc23)CC1 [Compound 169]	1 to 10 µM	≤ 1 µM
Cn1nc(C(=O)N2CCN(c3ccccc3)CC2)c2cnccc2c1=O [Compound 170, 2-methyl-4-(4-phenylpiperazine-1-carbonyl)pyrido[3,4-d]pyridazin-1-one]	> 20 µM	> 20 µM
Cn1nc(C(=O)N2CCN(c3ccccc3)CC2)c2ccncc2c1=O [Compound 171, 3-methyl-1-(4-phenylpiperazine-1-carbonyl)pyrido[3,4-d]pyridazin-4-one]	> 20 µM	> 20 µM
COc1cccc(N2CCN(C(=O)c3nn(C)c(=O)c4cnccc34)CC2)c1 [Compound 172, 1-(4-(3-methoxyphenyl)piperazine-1-carbonyl)-3-methylpyrido[3,4-d]pyridazin-4(3H)-one]	1 to 10 µM	1 to 10 µM
COc1cccc(N2CCN(C(=O)c3nn(C)c(=O)c4ccncc34)CC2)c1 [Compound 173, 4-(4-(3-methoxyphenyl)piperazine-1-carbonyl)-2-methylpyrido[3,4-d]pyridazin-1(2H)-one]	1 to 10 µM	≤ 1 µM
COc1cc(F)ccc1N1CCN(C(=O)c2nn(C)c(=O)c3ccncc23)CC1 [Compound 174]	10 to 20 µM	1 to 10 µM
COc1ccccc1N1CCN(C(=O)c2nn(C)c(=O)c3ccncc23)CC1 [Compound 175]	1 to 10 µM	≤ 1 µM
COc1cc(F)cc(N2CCN(C(=O)c3nn(C)c(=O)c4ccncc34)CC2)c1 [Compound 176]	≤ 1 µM	≤ 1 µM
Cn1nc(C(=O)N2CCN(c3ccccc3C3CC3)CC2)c2cnccc2c1=O [Compound 177]	≤ 1 µM	≤ 1 µM
COc1cc(F)ccc1N1CCN(C(=O)c2nn(C)c(=O)c3cnccc23)CC1 [Compound 178]	> 20 µM	> 20 µM
COc1ccccc1N1CCN(C(=O)c2nn(C)c(=O)c3cnccc23)CC1 [Compound 179]	1 to 10 µM	1 to 10 µM
COc1cc(F)cc(N2CCN(C(=O)c3nn(C)c(=O)c4cnccc34)CC2)c1 [Compound 180]	1 to 10 µM	≤ 1 µM
Cn1nc(C(=O)N2CCN(c3ccccc3C3CC3)CC2)c2ccncc2c1=O [Compound 181]	≤ 1 µM	≤ 1 µM
COc1cccc(N2CCN(C(=O)c3nn(C)c(=O)c4ncccc34)CC2)c1 [Compound 182, 5-(4-(3-methoxyphenyl)piperazine-1-carbonyl)-7-methylpyrido[2,3-d]pyridazin-8(7H)-one]	> 20 µM	> 20 µM
COc1ccccc1N1CCN(C(=O)c2nn(C)c(=O)c3ncccc23)CC1 [Compound 183]	> 20 µM	10 to 20 µM

Compound	IC50 [1]	IC50 [2]
COc1cc(F)cc(N2CCN(C(=O)c3nn(C)c(=O)c4ncccc34)CC2)c1 [Compound 184, 5-(4-(3-fluoro-5-methoxyphenyl)piperazine-1-carbonyl)-7-methylpyrido[2,3-d]pyridazin-8(7H)-one]	10 to 20 µM	1 to 10 µM
Cn1nc(C(=O)N2CCN(c3nnccc3C3CC3)CC2)c2ccccc2c1=O [Compound 185, 4-[4-(4-cyclopropylpyridazin-3-yl)piperazine-1-carbonyl]-2-methyl-phthalazin-1-one]	1 to 10 µM	1 to 10 µM
CCn1nc(C(=O)N2CCN(c3ccc(F)c4c3OCC4)CC2)c2ccccc2c1=O [Compound 186, 2-ethyl-4-(4-(4-fluoro-2,3-dihydrobenzofuran-7-yl)piperazine-1-carbonyl)phthalazin-1(2H)-one]	≤ 1 µM	≤ 1 µM
CCn1nc(C(=O)N2CCN(c3ccnc4c3OCC4)CC2)c2ccccc2c1=O [Compound 187]	≤ 1 µM	≤ 1 µM
CCn1nc(C(=O)N2CCN(c3ccc(F)c4c3CCO4)CC2)c2ccccc2c1=O [Compound 188]	≤ 1 µM	≤ 1 µM
Cn1nc(C(=O)N2CCN(c3ccnc4c3OCC4)CC2)c2ccccc2c1=O [Compound 189]	≤ 1 µM	≤ 1 µM
Cn1nc(C(=O)N2CCN(c3cncc4c3OCC4)CC2)c2ccccc2c1=O [Compound 190]	≤ 1 µM	≤ 1 µM
Cn1nc(C(=O)N2CCN(c3cccc4cnn(C)c34)CC2)c2ccccc2c1=O [Compound 191]	> 20 µM	> 20 µM
Cn1nc(C(=O)N2CCN(c3cccn4ccnc34)CC2)c2ccccc2c1=O [Compound 192]	10 to 20 µM	1 to 10 µM
Cn1nc(C(=O)N2CCN(c3ccnc4cnn(C)c34)CC2)c2ccccc2c1=O [Compound 193]	> 20 µM	> 20 µM
Cn1nc(C(=O)N2CCN(c3nccc4sccc34)CC2)c2ccccc2c1=O [Compound 194]	10 to 20 µM	1 to 10 µM
Cn1nc(C(=O)N2CCN(c3nccc4occc34)CC2)c2ccccc2c1=O [Compound 195]	10 to 20 µM	10 to 20 µM
Cn1nc(C(=O)N2CCN(c3nccn4ccnc34)CC2)c2ccccc2c1=O [Compound 196]	> 20 µM	> 20 µM
Cn1nc(C(=O)N2CCN(c3cc(F)cc(OC(F)(F)F)c3)CC2)c2ccccc2c1=O [Compound 197]	1 to 10 µM	≤ 1 µM
Cn1nc(C(=O)N2CCN(c3cc(F)cc(OC(F)F)c3)CC2)c2ccccc2c1=O [Compound 198]	≤ 1 µM	≤ 1 µM
Cn1nc(C(=O)N2CCN(c3cc(C#N)cc(OC(F)F)c3)CC2)c2ccccc2c1=O [Compound 199]	≤ 1 µM	≤ 1 µM
Cn1nc(C(=O)N2CCN(c3cc(C#N)ccc3C(F)F)CC2)c2ccccc2c1=O [Compound 200]	1 to 10 µM	1 to 10 µM
Cn1nc(C(=O)N2CCN(c3cc(C#N)cc(C(F)F)c3)CC2)c2ccccc2c1=O [Compound 201]	≤ 1 µM	≤ 1 µM
Cn1nc(C(=O)N2CCN(c3ccc4nccn4c3)CC2)c2ccccc2c1=O [Compound 202]	> 20 µM	> 20 µM
